Measured values published in paper PMC11915372, “Identification of a Series Containing a Pentafluorophenyl Moiety That Targets Pks13 to Inhibit Growth of Mycobacterium tuberculosis” (ACS Infectious Diseases, 2025).
Values after ≈ are worked out from the molar mass of the structure shown. Like-named read-outs stand apart in the source and are kept apart here.

How the values were obtained:
physchem [1] = conditions: pH 7.4
HepG2 cells = test: HepG2 cytotoxicity; conditions: Homo sapiens
Excerpt: Assays to establish HepG2 cytotoxicity, in vitro microsomal/hepatocyte metabolic stability, aqueous kinetic solubility, and in vivo pharmacokinetic profiles were all performed as previously described.[15],[35]−[37]

physchem [2] = assay type: physicochemical
[3] = assay type: in vitro ADME, mouse
[4] = assay type: in vitro ADME, mouse; remark: listed apart in the source
M. tuberculosis (H37Rv) = test: microbe, parasite or virus in culture; assay type: cell-based, Mycobacterium tuberculosis; conditions: Mycobacterium tuberculosis, H37RV
M. tuberculosis H37Rv = assay type: in vivo; conditions: C57BL/6J mice, oral dosing for 8 days from day 1 post-infection, qPCR
[5] = test system: mycolic acid biosynthesis; conditions: with accumulation of mycolic acid precursors; cited from earlier work
[6] = human liver microsomes, glutathione conjugation
[7] = HepG2, read-out: HepG2 inhibitory concentration (IC50)
[8] = pH 7.4, aqueous buffer, kinetic from dmso stock
[9] = read-out: Wk2_7H9/DPPC/ casitone/ Tyloxapol MIC
[10] = read-out: Wk2_ 7H9/DPPC/ cholesterol/BSA/ Tyloxapol MIC
[11] = read-out: Wk2_7H9/glucose/ BSA/Tyloxapol MIC
[12] = read-out: Wk2_7H9/glucose/ casitone/ Tyloxapol MIC

SMILES	chromatographic logD (physchem [1])	IC50 (HepG2 cells; [7])	solubility kinetic (physchem [2]; [8])	solubility kinetic (physchem [2]; read-out: Kin. Sol)	Microsomal Cli ([3]; CD1, mouse)	Mouse micro Cl ([3]; mouse, microsomes)	Hepatocyte Cli ([4]; mouse)	Mouse Heps Cl ([4]; mouse, hepatocytes)	MIC (M. tuberculosis (H37Rv); read-out: H37Rv MIC A)	MIC (M. tuberculosis (H37Rv); read-out: H37Rv MIC B)	MIC (M. tuberculosis (H37Rv); [9])	MIC (M. tuberculosis (H37Rv); [10])	MIC (M. tuberculosis (H37Rv); [11])	MIC (M. tuberculosis (H37Rv); [12])	further results
CCOC(=O)c1nc(C)oc1NC(=O)c1cc(F)c(F)c(F)c1F [Compound 25, CCOC(=O)c1nc(oc1NC(=O)c1cc(c(c(c1F)F)F)F)C]	2.5	> 100 µM	136 µM (≈ 47.1 µg/mL)	136 µM (≈ 47.1 µg/mL)	5.1 mL/min/g	5.1 mLmin/g	17 mL/min/g	17 mLmin/g	0.3 µM (≈ 0.104 µg/mL)	0.6 µM (≈ 0.208 µg/mL)	0.3 µM (≈ 0.104 µg/mL)	0.6 µM (≈ 0.208 µg/mL)	0.6 µM (≈ 0.208 µg/mL)	0.3 µM (≈ 0.104 µg/mL)	–
CCOC(=O)c1nc(C(C)C)oc1NC(=O)c1c(F)c(F)c(F)c(F)c1F [Compound 31, CCOC(=O)c1nc(oc1NC(=O)c1c(c(c(c(c1F)F)F)F)F)C(C)C]	2.8	> 100 µM	195 µM (≈ 76.5 µg/mL)	195 µM (≈ 76.5 µg/mL)	3.3 mL/min/g	3.3 mL/min/g	13 mL/min/g	13 mL/min/g	0.1 µM (≈ 0.0392 µg/mL)	0.6 µM (≈ 0.235 µg/mL)	0.1 µM (≈ 0.0392 µg/mL)	0.6 µM (≈ 0.235 µg/mL)	0.6 µM (≈ 0.235 µg/mL)	0.15 µM (≈ 0.0588 µg/mL)	–
COc1c(N2C[C@@H]3CCCN[C@@H]3C2)c(F)cc2c(=O)c(C(=O)O)cn(C3CC3)c12 [Moxifloxacin, reference compound]	–	–	–	–	–	–	–	–	–	–	–	–	–	–	reduction in bacterial DNA in lungs compared to the untreated control (M. tuberculosis H37Rv): ~3 log
CCOC(=O)c1nc(C)oc1NS(=O)(=O)c1c(F)c(F)c(F)c(F)c1F [Compound 30, CCOC(=O)c1nc(oc1NS(=O)(=O)c1c(c(c(c(c1F)F)F)F)F)C]	1.4	> 100 µM	171 µM (≈ 68.4 µg/mL)	171 µM (≈ 68.4 µg/mL)	0.9 mL/min/g	0.94 mLmin/g	0.8 mL/min/g	0.78 mLmin/g	> 50 µM	> 50 µM	> 50 µM	> 50 µM	> 50 µM	> 50 µM	–
COC(=O)c1c(NC(=O)c2c(F)c(F)c(F)c(F)c2F)sc2c1CCCCC2 [TP2, reference compound]	4.6	13 µM	–	–	–	15 mLmin/g	–	43.2 mLmin/g	0.11 µM (≈ 0.0461 µg/mL)	1.2 µM (≈ 0.503 µg/mL)	–	–	–	–	solubility kinetic (physchem [2]; water, kinetic from dmso stock): 0.2 µM (≈ 0.0839 µg/mL); effect on mycolic acid biosynthesis [5]: inhibited mycolic acid biosynthesis; time to complete elimination of parent [6]: ≤ 6 min
CCOC(=O)c1nc(C)oc1NC(=O)c1c(F)c(F)cc(F)c1F [Compound 28, CCOC(=O)c1nc(oc1NC(=O)c1c(c(cc(c1F)F)F)F)C]	1.7	–	–	–	–	–	–	–	> 50 µM	> 50 µM	> 50 µM	> 50 µM	> 50 µM	> 50 µM	IC50 (HepG2 cells; HepG2, read-out: Hs-HEPG IC50): > 100 µM; solubility kinetic (physchem [2]; kinetic solubility in water, read-out: Kin. Sol): 163 µM (≈ 56.4 µg/mL); solubility kinetic (physchem [2]; pH 7.4, aqueous buffer, kinetic from dmso stock, pH7.4, read-out: Kinetic Solubility pH7.4): 163 µM (≈ 56.4 µg/mL); Mouse micro Cl ([3]; intrinsic clearance (Cli), CD1 mouse liver microsomes, Tables 1-4): <0.5 mLmin/g; Microsomal Cli ([3]; supplement data table): <0.5 mL/min/g; Mouse Heps Cl ([4]; intrinsic clearance (Cli), mouse hepatocytes, Tables 1-4): 0.88 mLmin/g; Hepatocyte Cli ([4]; supplement data table): 0.9 mL/min/g
Cc1nc(-c2ncco2)c(NC(=O)c2c(F)c(F)c(F)c(F)c2F)o1 [Compound 41, Cc1nc(c(o1)NC(=O)c1c(c(c(c(c1F)F)F)F)F)-c1ncco1]	1.7	> 100 µM	234 µM (≈ 84.1 µg/mL)	234 µM (≈ 84.1 µg/mL)	0.5 mL/min/g	0.51 mL/min/g	12 mL/min/g	12 mL/min/g	0.4 µM (≈ 0.144 µg/mL)	1.2 µM (≈ 0.431 µg/mL)	0.4 µM (≈ 0.144 µg/mL)	1.2 µM (≈ 0.431 µg/mL)	1.2 µM (≈ 0.431 µg/mL)	0.4 µM (≈ 0.144 µg/mL)	–
